Series [1] relates to HepG2. Description: Antiproliferative activity against human HepG2 cells assessed as reduction in cell viability incubated for 48 hrs by MTT assay. Format: functional, cell-based. Conditions: HepG2, 48 h. In general terms: Formazan colour is commonly taken as a measure of viable cells.
For series [2], the system named is NCI-H446. Kind of series: Antiproliferative activity against human NCI-H446 cells assessed as reduction in cell viability incubated for 48 hrs by MTT assay. Format: functional, cell-based. Particulars: for IC50: NCI-H446, 48 h.
Series [3] has as its system NCI-H446. Kind of series: Induction of apoptosis in human NCI-H446 cells assessed as crumpled nuclei at 2 uM incubated for 24 hrs by DAPI staining based fluorescence inverted microscopic analysis. In kind it is functional, cell-based.
Series [4] can be described thus: Cytotoxicity against human HL7702 cells assessed as reduction in cell viability incubated for 48 hrs by MTT assay. Format: toxicity, cell-based. Conditions: HL7702 (L02) cells.
A short description of series [5]: Cytotoxicity against HBE (human bronchial epithelial) cells assessed as reduction in cell viability incubated for 48 hrs by MTT assay. Format: toxicity, cell-based.
The subject of series [6] is A549. Kind of series: Antiproliferative activity against human A549 cells assessed as reduction in cell viability incubated for 48 hrs by MTT assay. Conditions: A549, 48 h. Format: functional, cell-based.
Series [7] can be described thus: Selectivity index, ratio of IC50 for cytotoxicity against HBE (human bronchial epithelial) cells to IC50 for antiproliferative activity against human NCI-H446 cells. Format: toxicity, cell-based. Conditions: HBE (human bronchial epithelial) cells versus NCI-H446 cells, read-out: Ratio IC50.
For series [8], the system named is Cell membrane. Description: Induction of mitochondrial membrane potential loss in human NCI-H446 cells incubated for 24 hrs by JC-1 staining based flow cytometric analysis. Format: cell membranes. Conditions: dose 0.25-2 µM. A general note: A flow cytometer gives signals particle by particle.
In series [9] the test system is NCI-H446. Description: Induction of apoptosis in human NCI-H446 cells assessed as late apoptotic cells at 1 uM incubated for 24 hrs by Annexin V-FITC/PI staining based flow cytometric analysis (reference value: 1.71 %). In kind it is functional.
Series [10] deals with NCI-H446. Description: Induction of ROS production in human NCI-H446 cells assessed as increase in intracellular ROS level incubated for 24 hrs by DCFH-DA staining based flow cytometric analysis. Format: functional, cell-based. Conditions: dose 0.25-2 µM.
The test system of series [11] is NCI-H446. Description: Antiproliferative activity against human NCI-H446 cells assessed as reduction in cell viability at 0.5 to 8 uM by MTT assay. In kind it is functional, cell-based. Conditions: dose 0.5-8 µM, time 24-72 hrs, TDE = time-dependent effect.
For series [12], the system named is NCI-H446. Description: Induction of apoptosis in human NCI-H446 cells assessed as late apoptotic cells at 0.5 uM incubated for 24 hrs by Annexin V-FITC/PI staining based flow cytometric analysis (reference value: 1.71 %). Format: functional.
The subject of series [13] is NCI-H446. Kind of series: Induction of apoptosis in human NCI-H446 cells assessed as change in cellular nuclei morphology at 1 uM incubated for 24 hrs by DAPI staining based fluorescence inverted microscopic analysis. Format: functional, cell-based.
The nature of series [14]: Toxicity in Caenorhabditis elegans assessed as reduction in movement speed at 20 to 100 uM measured after 72 hrs by […] microscopic analysis. Particulars: dose 20-100 µM.
For series [15], the system named is NCI-H446. Description: Induction of apoptosis in human NCI-H446 cells assessed as necrotic cells at 0.25 uM incubated for 24 hrs by Annexin V-FITC/PI staining based flow cytometric analysis (reference value: 1.17 %). Format: functional.
For series [16], the system named is CDDP-resistant A549 cell. Kind of series: Sensitization of cisplatin-induced antiproliferative activity against human CDDP-resistant A549 cells assessed as inhibition of cell growth at 0.25 uM incubated for 48 hrs by MTT assay. Format: functional, cell-based.
Series [17] concerns NCI-H446. Kind of series: Induction of apoptosis in human NCI-H446 cells assessed as necrotic cells at 0.5 uM incubated for 24 hrs by Annexin V-FITC/PI staining based flow cytometric analysis (reference value: 1.17 %). Format: functional.
Series [18] has as its system NCI-H446. Description: Induction of apoptosis in human NCI-H446 cells assessed as viable cells at 1 uM incubated for 24 hrs by Annexin V-FITC/PI staining based flow cytometric analysis (reference value: 96.8 %). In kind it is functional. Particulars: read-out: Activity.
The nature of series [19]: Drug uptake in human NCI-H446 cells assessed as green fluorescence at 2.5 uM incubated for 5 hrs by confocal microscopic analysis. Format: ADME, cell-based. Particulars: nci-h446, 5 h.
The subject of series [20] is NCI-H446. Description: Induction of apoptosis in human NCI-H446 cells assessed as late apoptotic cells at 0.25 uM incubated for 24 hrs by Annexin V-FITC/PI staining based flow cytometric analysis (reference value: 1.71 %). Format: functional.
Series [21] relates to NCI-H446. Description: Induction of apoptosis in human NCI-H446 cells assessed as viable cells at 0.5 uM incubated for 24 hrs by Annexin V-FITC/PI staining based flow cytometric analysis (reference value: 96.8 %). Particulars: read-out: Activity. In kind it is functional.
Series [22] deals with CDDP-resistant A549 cell. Description: Antiproliferative activity against human CDDP-resistant A549 cells assessed as reduction in cell viability at 0.5 to 16 uM incubated for 48 hrs by MTT assay. Format: functional, cell-based. Conditions: dose 0.5-16 µM.
The subject of series [23] is NCI-H446. Kind of series: Cell cycle arrest in human NCI-H446 cells assessed as G0/G1 phase cells incubated for 24 hrs by PI staining based flow cytometric analysis (reference value: 52.37%). Format: functional.
Series [24] has as its system NCI-H446. Kind of series: Induction of apoptosis in human NCI-H446 cells assessed as necrotic cells at 2 uM incubated for 24 hrs by Annexin V-FITC/PI staining based flow cytometric analysis (reference value: 1.17 %). Format: functional.
Series [25] can be described thus: Drug localization in human NCI-H446 cell mitochondria at 2.5 uM incubated for 5 hrs by MitoTracker Red CMXRos dye based confocal microscopic analysis. Format: ADME. Particulars: nci-h446, 5 h.
In series [26] the test system is NCI-H446. Description: Induction of apoptosis in human NCI-H446 cells assessed as early apoptotic cells at 1 uM incubated for 24 hrs by Annexin V-FITC/PI staining based flow cytometric analysis (reference value: 0.37 %). Format: functional.
Series [27] deals with NCI-H446. Kind of series: Cell cycle arrest in human NCI-H446 cells assessed as increase in subG1 phase cells at 0.25 to 2 uM incubated for 24 hrs by PI staining based flow cytometric analysis. Conditions: dose 0.25-2 µM. In kind it is functional.
Series [28] deals with NCI-H446. Kind of series: Induction of apoptosis in human NCI-H446 cells assessed as viable cells at 0.25 uM incubated for 24 hrs by Annexin V-FITC/PI staining based flow cytometric analysis (reference value: 96.8 %). Format: functional. Conditions: read-out: Activity.
The test system of series [29] is NCI-H446. Kind of series: Induction of apoptosis in human NCI-H446 cells assessed as early apoptotic cells at 2 uM incubated for 24 hrs by Annexin V-FITC/PI staining based flow cytometric analysis (reference value: 0.37 %). In kind it is functional.
Series [30] deals with NCI-H446. Description: Induction of apoptosis in human NCI-H446 cells assessed as decrease in caspase-9 level at 0.5 to 2 uM by Western blot analysis. In kind it is functional, cell-based. Conditions: dose 0.5-2 µM. In general terms: In western blotting, separated proteins are transferred to a membrane and probed.
Series [31] concerns NCI-H446. Description: Induction of apoptosis in human NCI-H446 cells assessed as early apoptotic cells at 0.25 uM incubated for 24 hrs by Annexin V-FITC/PI staining based flow cytometric analysis (reference value: 0.37 %). Format: functional.
For series [32], the system named is NCI-H446. Kind of series: Synergistic antiproliferative activity against human NCI-H446 cells assessed as reduction in cell viability incubated for 48 hrs in presence of cisplatin by MTT assay. Format: functional, cell-based. Conditions: dose 0.5-8 µM.
A short description of series [33]: Toxicity in Caenorhabditis elegans assessed as reduction in growth by measuring body length at 50 to 100 uM measured after 72 hrs by […] microscopic analysis. Particulars: dose 50-100 µM.
The subject of series [34] is NCI-H446. Description: Induction of apoptosis in human NCI-H446 cells assessed as decrease in PARP level at 0.5 to 2 uM by Western blot analysis. In kind it is functional, cell-based. Particulars: dose 0.5-2 µM.
Series [35] concerns NCI-H446. Kind of series: Induction of apoptosis in human NCI-H446 cells assessed as necrotic cells at 1 uM incubated for 24 hrs by Annexin V-FITC/PI staining based flow cytometric analysis (reference value: 1.17 %). Format: functional.
The subject of series [36] is NCI-H446. Kind of series: Induction of apoptosis in human NCI-H446 cells assessed as increase in cleaved caspase-3 level at 0.5 to 2 uM by Western blot analysis. Conditions: dose 0.5-2 µM. In kind it is functional, cell-based.
Series [37] has as its system NCI-H446. Description: Antiproliferative activity against human NCI-H446 cells assessed as reduction in cell viability incubated for 24 to 72 hrs by MTT assay. Conditions: dose 0.5-8 µM, time 24-72 hrs. In kind it is functional, cell-based.
For series [38], the system named is NCI-H446. Kind of series: Induction of apoptosis in human NCI-H446 cells assessed as early apoptotic cells at 0.5 uM incubated for 24 hrs by Annexin V-FITC/PI staining based flow cytometric analysis (reference value: 0.37 %). Format: functional.
The test system of series [39] is NCI-H446. Description: Induction of apoptosis in human NCI-H446 cells assessed as increase in cleaved caspase-9 level at 0.5 to 2 uM by Western blot analysis. In kind it is functional, cell-based. Conditions: dose 0.5-2 µM.
For series [40], the system named is NCI-H446. Description: Induction of apoptosis in human NCI-H446 cells assessed as late apoptotic cells at 2 uM incubated for 24 hrs by Annexin V-FITC/PI staining based flow cytometric analysis (reference value: 1.71 %). In kind it is functional.
The nature of series [41]: Induction of apoptosis in HBE (human bronchial epithelial) cells assessed as change in nuclei morphology at 1 to 2 uM incubated for 24 hrs by DAPI staining based fluorescence inverted microscopic analysis. Conditions: dose 1-2 µM. In kind it is toxicity, cell-based.
The test system of series [42] is NCI-H446. Kind of series: Induction of apoptosis in human NCI-H446 cells assessed as decrease in caspase-3 level at 0.5 to 2 uM by Western blot analysis. Format: functional, cell-based. Particulars: dose 0.5-2 µM.
The test system of series [43] is NCI-H446. Description: Cell cycle arrest in human NCI-H446 cells assessed as decrease in S phase cells at 0.25 to 2 uM incubated for 24 hrs by PI staining based flow cytometric analysis. In kind it is functional. Particulars: dose 0.25-2 µM.
Series [44] concerns NCI-H446. Kind of series: Induction of apoptosis in human NCI-H446 cells assessed as viable cells at 2 uM incubated for 24 hrs by Annexin V-FITC/PI staining based flow cytometric analysis (reference value: 96.8 %). Conditions: read-out: Activity. In kind it is functional.

The structures appear in SMILES notation. Calls of active or inactive are those of the source. The rule behind the calls is not given here.

For the compound `C=CCc1ccc(OCCC)c(-c2ccc(OCCCCCC[n+]3ccc(/C=C/c4c[nH]c5ccccc45)cc3)c(CC=C)c2)c1`, the IC50 in series [1] came out at 2.03 µM; in series [2], 2.88 µM; in series [6] it was 2.04 µM. Besides, the outcome in series [3] was Active. Also, the figures for the IC50 at 48 h in series [4] and in series [5] were 1.85 µM and 7.78 µM, respectively.

Turning to `C=CCc1ccc(OC)c(-c2ccc(OCCCOC(=O)Cc3c4[n+](cc5c(OC)c(OC)ccc35)CCc3cc5c(cc3-4)OCO5)c(CC=C)c2)c1`, the IC50 in series [1] is 3.14 µM; in series [2] it was 3.53 µM; in series [6], 7.74 µM. The IC50 at 48 h in series [4] turned out to be 4.76 µM; in series [5], 21.6 µM. Besides, the selectivity ratio in series [7] was determined as 3.53.

With `C=CCc1ccc(OCCC)c(-c2ccc(OCCC[n+]3ccc(/C=C/c4c[nH]c5ccccc45)cc3)c(CC=C)c2)c1.[Br-]`, the Activity result in [8] was “Dose-Dependent Effect”; in [9], 95.4%; in series [10] it was “Dose-Dependent Effect”; in series [11], “Tde”; in [12], 88.1%; in [2], “Dose-Dependent Effect”. The Activity result in [14] was “Non-Toxic”; in series [15], 0.14%; in series [17] it was 0.08%; in [20], 57.4%; in series [23], 68.31%; in [24] it was 0.45%. The Activity in series [26] is 2.12%; in [29], 2.19%; in [31] it was 39.9%; in [32], “Dose-Dependent Effect”; in [33], “Non-Toxic”; in series [35] it was 0.13%. The Activity result in [37] was “Dose-Dependent Effect”; in series [38], 10.1%; in [40] it was 95.4%; in [41], “Non-Toxic”. Further, the IC50 in [1] was determined as 2.48 µM; in series [2], 2.87 µM; in series [6] it was 4.6 µM. Besides, the outcome in series [13], in [16], in series [27], in series [30], in series [34] and in series [36] was Active. The outcome in series [39], in series [42] and in series [43] was Active. In [18], the viability at 1 µM came out at 1.32%. Moreover, the Drug uptake entry in series [19] and in series [25] was “Active” in each case. The viability at 0.5 µM in series [21] came out at 1.75%. The result in series [22] was inactive. In addition, the viability at 0.25 µM in series [28] turned out to be 2.58%. Besides, the IC50 at 48 h in series [4] is 2.62 µM; in series [5], 23.1 µM. Further, in series [7], the selectivity ratio is about 10. In series [44], the viability at 2 µM turned out to be 1.97%.

One may read the IC50 as the concentration at which inhibition is half-maximal.
